Experimental findings from US20240425523A1, “Compounds for the Degradation of EGFR Kinase” (Beigene Switzerland GMBH, priority 2023, published 2024) are described below.

Molecules are shown by their SMILES.

Common to all, as to type: cell-based
Assay [1] concerns the target T1, EGFR L858R (BaF3-L858R cells) (Homo sapiens, UniProt P00533, L858R).
T1 construct: host or cells: BaF3
Briefly: Cell degradation of EGFR, HTRF assay, BaF3-L858R cells. The note with it: 16 h treatment; for DC50: EGFR degradation; for Dmax: maximum percentage of degradation. The method, boiled down:
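BaF3-L858R cells treated 16 h at 37° C, 5% CO2 with compound (top 10 uM final, 5-fold, 8 doses, 0.1% DMSO). DC50 from four-parameter fit; Dmax is maximum percent degradation.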
On the technique in general: Time-resolved FRET reads energy transfer from a long-lived donor to a nearby acceptor.

Assay [2] addresses T2, p-EGFR L858R (BaF3-L858R cells) (Homo sapiens, UniProt P00533, L858R).
T2 construct: host or cells: BaF3
Briefly: Cell p-EGFR inhibition assay, HTRF, BaF3-L858R cells. The note with it: 16 h treatment; for Imax (%): maximum percentage of pEGFR inhibition; for IC50: pEGFR inhibition. The method, boiled down: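 BaF3-L858R cells treated 16 h at 37 °C, 5% CO2 with compound from 10 uM top, 5-fold dilutions, 8 doses, in 0.1% DMSO medium. Lysates read overnight by HTRF p-EGFR antibodies; IC50 fitted to four-parameter curve against DMSO high control.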

Assay [3] has as its target p-EGFR Del19/C797S (H1975-clone #23 cells) (Homo sapiens, UniProt P00533). Briefly: Cell p-EGFR inhibition assay, HTRF, H1975-clone#23 (DEL19/C797S) cells. The note with it: 16 h treatment; for Imax (%): maximum percentage of pEGFR inhibition; for IC50: pEGFR inhibition. The gist of the method:
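Phospho-EGFR read by overnight HTRF on lysates, normalized to DMSO-treated high control; IC50, Hill slope and Imax fitted. Compounds were applied for 16 h (10 uM top, 5-fold steps, 8 doses) to an H1975 single clone carrying only exogenous Del19/C797S EGFR after sgRNA knockout of endogenous copies.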

In assay [4] the target is T3, EGFR-L858R/C797S (H1975-clone #8 cells) (Homo sapiens, UniProt P00533, C797S/L858R).
T3 construct: expressed in transfected cells; host or cells: H1975 (endogenous EGFR knocked out, clone #8)
Briefly: Cell degradation of EGFR, HTRF assay, H1975-clone#8 (L858R/C797S) cells. The note with it: 16 h treatment; for DC50: EGFR degradation; for Dmax: maximum percentage of degradation.

For the compound `Cc1cc2cc(n1)-c1cnn(C)c1OC[C@H]1CCC(C1)CN1/C(=N/C2=O)Nc2ccc(N3CCC4(CC3)CN(C3CCN(c5cc(F)c([C@H]6CCC(=O)NC6=O)c(F)c5)CC3)C4)cc21` [Example 120, (R)-3-(4-(4-(7-((7^1R,7^3S,E)-1^1,2^6-dimethyl-3-oxo-5^2,5^3-dihydro-1^1H,5^1H-9-oxa-4-aza-5(2,1)-benzo[d]imidazola-2(2,4)-pyridina-1(4,5)-pyrazola-7(1,3)-cyclopentanacyclononaphane-5^6-yl)-2,7-diazaspiro[3.5]nonan-2-yl)piperidin-1-yl)-2,6-difluorophenyl)piperidine-2,6-dione], in assay [1], the DC50 is 3.14 nM and the Dmax stood at 70.8%. In assay [2], the “Imax (%)” value was 94.2% and 15.6 nM corresponded to half-maximal inhibition (IC50). Further, in assay [3], the “Imax (%)” value is 99.1% and the midpoint of inhibition, the IC50, lay at 1.1 nM. In assay [4], the DC50 came out at 0.55 nM and the Dmax is 65.7%.

In assay [1], `COC[C@@H]1CN(c2ccc3c(c2)N2C[C@@H]4CC[C@H](COc5c(c(C)nn5C)-c5cc(cc(C)n5)C(=O)/N=C/2N3)C4)CCN1C1CCN(c2cc(F)c(C3CCC(=O)NC3=O)nc2C)CC1` (stereo partly drawn) [Example 89, 3-(3-fluoro-5-(4-((S)-2-(methoxymethyl)-4-((7^1R,7^3S,E)-1^1,1^3,2^6-trimethyl-3-oxo-5^2,5^3-dihydro-1^1H,5^1H-9-oxa-4-aza-5(2,1)-benzo[d]imidazola-2(2,4)-pyridina-1(4,5)-pyrazola-7(1,3)-cyclopentanacyclononaphane-5^6-yl)piperazin-1-yl)piperidin-1-yl)-6-methylpyridin-2-yl)piperidine-2,6-dione] returned a DC50 of 1.75 nM and a Dmax of 73.9%. In assay [2], the “Imax (%)” value is 99.7% and half-maximal inhibition (IC50) required 8 nM. In assay [3], the “Imax (%)” value amounted to 101.2% and the IC50 was 1.9 nM. In assay [4], this compound registered a DC50 of 1.64 nM and a Dmax of 87.5%.

In assay [1], `Cc1cc2cc(n1)-c1cnn(C)c1OC[C@H]1CCC(C1)CN1/C(=N/C2=O)Nc2ccc(N3CCN(C4CCN(c5c(F)cc(NC6CCC(=O)NC6=O)cc5F)CC4)CC3)cc21` (stereo partly drawn) [Example 92, 3-((4-(4-(4-((7^1R,7^3S,E)-1^1,2^6-dimethyl-3-oxo-5^2,5^3-dihydro-1^1H,5^1H-9-oxa-4-aza-5(2,1)-benzo[d]imidazola-2(2,4)-pyridina-1(4,5)-pyrazola-7(1,3)-cyclopentanacyclononaphane-5^6-yl)piperazin-1-yl)piperidin-1-yl)-3,5-difluorophenyl)amino)piperidine-2,6-dione] registered a DC50 of 1.97 nM and a Dmax of 85.8%. In assay [2], the “Imax (%)” value is 97.2% and the IC50 worked out at 10 nM. In addition, in assay [3], the “Imax (%)” value turned out to be 100.1% and the IC50 worked out at 1 nM. Further, in assay [4], the DC50 came out at 3.12 nM and the Dmax was found to be 79.8%.

In the case of `Cc1cc2cc(n1)-c1c(C)nn(C)c1OC[C@H]1CCC(C1)CN1/C(=N/C2=O)Nc2ccc(N3CCN(C4CCN(c5ccc(C6CCC(=O)NC6=O)nc5C)CC4)CC3)cc21` (stereo partly drawn) [Example 72, 3-(6-methyl-5-(4-(4-((7^1R,7^3S,E)-1^1,1^3,2^6-trimethyl-3-oxo-5^2,5^3-dihydro-1^1H,5^1H-9-oxa-4-aza-5(2,1)-benzo[d]imidazola-2(2,4)-pyridina-1(4,5)-pyrazola-7(1,3)-cyclopentanacyclononaphane-5^6-yl)piperazin-1-yl)piperidin-1-yl)pyridin-2-yl)piperidine-2,6-dione], the DC50 came out at 0.4 nM in assay [1] and 0.64 nM in assay [4]. The Dmax was 91.6% in assay [1] and 76.6% in assay [4]. The “Imax (%)” value is listed as 92.8% in assay [2] and 101.7% in assay [3]. Besides, the IC50 in assay [2] worked out at 3.2 nM; in assay [3], 0.6 nM.

On to `CC[C@H]1CN(c2ccc3c(c2)N2C[C@@H]4CC[C@H](COc5c(c(C)nn5C)-c5cc(cc(C)n5)C(=O)/N=C/2N3)C4)CCN1C1CCN(c2cc(F)c([C@H]3CCC(=O)NC3=O)c(F)c2)CC1` [Example 189, (R)-3-(4-(4-((S)-2-ethyl-4-((7^1R,7^3S,E)-1^1,1^3,2^6-trimethyl-3-oxo-5^2,5^3-dihydro-1^1H,5^1H-9-oxa-4-aza-5(2,1)-benzo[d]imidazola-2(2,4)-pyridina-1(4,5)-pyrazola-7(1,3)-cyclopentanacyclononaphane-5^6-yl)piperazin-1-yl)piperidin-1-yl)-2,6-difluorophenyl)piperidine-2,6-dione], for which the results for the DC50 in assay [1] and in assay [4] were 4.4 nM and 2.38 nM, respectively. For the same compound, the figures for the Dmax in assay [1] and in assay [4] were 87.6% and 90.2%, respectively. Besides, the “Imax (%)” value in assay [2] is on record as 92.5%; in assay [3] it was 100.03%. Moreover, the IC50 in assay [2] is below 0.128 nM; in assay [3], 2.11 nM.

As for `Cc1cc2cc(n1)-c1cnn(C)c1OC[C@H]1CCC(C1)CN1/C(=N/C2=O)Nc2ccc(N3CC(N(C)C4CCN(c5cc(F)c([C@H]6CCC(=O)NC6=O)c(F)c5)CC4)C3)cc21` [Example 124, (R)-3-(4-(4-((1-((7^1R,7^3S,E)-1^1,2^6-dimethyl-3-oxo-5^2,5^3-dihydro-1^1H,5^1H-9-oxa-4-aza-5(2,1)-benzo[d]imidazola-2(2,4)-pyridina-1(4,5)-pyrazola-7(1,3)-cyclopentanacyclononaphane-5^6-yl)azetidin-3-yl)(methyl)amino)piperidin-1-yl)-2,6-difluorophenyl)piperidine-2,6-dione], the values for the 50% degradation concentration (DC50) in assay [1] and in assay [4] were 3.58 nM and 2.3 nM, respectively. Further, the greatest degradation seen (Dmax) in assay [1] was 71.1%; in assay [4], 67.5%. Further, the “Imax (%)” value is given as 94.6% in assay [2] and 99.6% in assay [3]. Besides, the half-maximal inhibitory concentration (IC50) in assay [2] turned out to be 17.1 nM; in assay [3], 0.9 nM.

Take `Cc1cc2cc(n1)-c1c(C)nn(C)c1OC[C@H]1CCC(C1)CN1/C(=N/C2=O)Nc2ccc(N3CCN([C@@H]4CCN(c5ccc(C6CCC(=O)NC6=O)nc5C)C[C@@H]4F)CC3)cc21` (stereo partly drawn) [Example 79, 3-(5-((3S,4R)-3-fluoro-4-(4-((7^1R,7^3S,E)-1^1,1^3,2^6-trimethyl-3-oxo-5^2,5^3-dihydro-1^1H,5^1H-9-oxa-4-aza-5(2,1)-benzo[d]imidazola-2(2,4)-pyridina-1(4,5)-pyrazola-7(1,3)-cyclopentanacyclononaphane-5^6-yl)piperazin-1-yl)piperidin-1-yl)-6-methylpyridin-2-yl)piperidine-2,6-dione]: in assay [1], it took 0.41 nM to reach half-maximal degradation (DC50) and the Dmax turned out to be 92.6%. In addition, in assay [2], the “Imax (%)” value came out at 92.7% and it took 1.1 nM to reach half-maximal inhibition (IC50). For the same compound, in assay [3], the “Imax (%)” value stood at 101.4% and the midpoint of inhibition, the IC50, lay at 0.3 nM. In assay [4], this compound yielded a DC50 of 0.48 nM and a Dmax of 91.7%.

In the case of `COC[C@H]1CN(c2ccc3c(c2)N2CC4CC[C@H](COc5c(c(C)nn5C)-c5cc(cc(C)n5)C(=O)/N=C/2N3)C4)CCN1C1CCN(c2cc(F)c([C@H]3CCC(=O)NC3=O)c(F)c2)CC1` [Example 91, (R)-3-(2,6-difluoro-4-(4-((R)-2-(methoxymethyl)-4-((7R,7^3S,E)-1^1,1^3,2^6-trimethyl-3-oxo-5^2,5^3-dihydro-1^1H,5^1H-9-oxa-4-aza-5(2,1)-benzo[d]imidazola-2(2,4)-pyridina-1(4,5)-pyrazola-7(1,3)-cyclopentanacyclononaphane-5^6-yl)piperazin-1-yl)piperidin-1-yl)phenyl)piperidine-2,6-dione], in assay [1], half-maximal degradation (DC50) was put at 2.04 nM and the Dmax came out at 81.5%. Moreover, in assay [2], the “Imax (%)” value worked out at 97.1% and the 50% inhibitory concentration (IC50) was 3.5 nM. In addition, in assay [3], the “Imax (%)” value is listed as 100.8% and the IC50 was 2.2 nM. In assay [4], half-maximal degradation (DC50) was put at 2.28 nM and the Dmax was 88.7%.

As for `Cc1cc2cc(n1)-c1c(C)nn(C)c1OC[C@H]1CC[C@H](C1)CN1/C(=N/C2=O)Nc2ccc(N3CCN(C[C@@H]4CCN(c5cc(F)c([C@H]6CCC(=O)NC6=O)c(F)c5)C4)CC3)cc21` [Example 184, (R)-3-(2,6-difluoro-4-((S)-3-((4-((7^1R,7^3S,E)-1^1,1^3,2^6-trimethyl-3-oxo-5^2,5^3-dihydro-1^1H,5^1H-9-oxa-4-aza-5(2,1)-benzo[d]imidazola-2(2,4)-pyridina-1(4,5)-pyrazola-7(1,3)-cyclopentanacyclononaphane-5^6-yl)piperazin-1-yl)methyl)pyrrolidin-1-yl)phenyl)piperidine-2,6-dione], in assay [1], half-maximal degradation (DC50) was put at 4.99 nM and the Dmax was 90.1%. In addition, in assay [2], the “Imax (%)” value worked out at 91.67% and the 50% inhibitory concentration (IC50) was 1.25 nM. In assay [3], the “Imax (%)” value is on record as 100.52% and half-maximal inhibition (IC50) was put at 2.48 nM. Besides, in assay [4], it took 3.16 nM to reach half-maximal degradation (DC50) and the greatest degradation seen (Dmax) worked out at 89.3%.

A word on the DC50: it is the concentration at which degradation of the target reaches its halfway point. Higher therefore signals degradation only at high concentration. A word on the Dmax: it is the largest share of the target that was removed. As usually defined, the IC50 is the concentration needed to halve the response being measured. The low end stands for greater potency in that assay, the high end for weaker potency in that assay.
